Results filed as inconclusive are left out. Calls of active or inactive are those of the source.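 Rule for the calls: active = Compounds that reduce signal, with fitted half-maximal dose at or under twice the top valid tested dose; inconclusive = Poor fit, or flat curve losing 30 to 70% of signal; inactive = Potency past limit, flat within 30%, or opposite direction.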

The first test can be described thus: viability loss in HEK293T cells – cell-based, ATP luminescence, cherry-pick samples, cytotoxicity control, dose response (AID 687005). Particulars: HEK293T viability, ATP luminescence (CellTiter-Glo), 48 h; at 23.5 µM (top of the series).
On to `C[C@@H]1CCCCO[C@@H](CN(C)Cc2ccc3c(c2)OCO3)[C@@H](C)CN([C@H](C)CO)C(=O)c2cc(NS(=O)(=O)c3ccc(F)cc3)ccc2O1`, for which the activity change, negative = cytotoxicity is -35.2% (inactive).
Regarding `O=C(NC1CCCCC1)N[C@H]1C=C[C@@H](CC(=O)N2CCOCC2)O[C@H]1CO`, the activity change, negative = cytotoxicity was 14.2% (inactive).
Regarding `COc1cccc(C#Cc2cnc3c(c2)C(=O)N([C@H](C)CO)C[C@@H](C)[C@@H](CN(C)C(=O)C2CCOCC2)O3)c1`, the activity change, negative = cytotoxicity is 6.67% (inactive).
As to `C[C@H](CO)N1C[C@H](C)[C@H](CN(C)C(=O)Nc2ccc3c(c2)OCO3)Oc2ncc(C#CC(C)(C)O)cc2C1=O`, the activity change, negative = cytotoxicity was -10.7% (inactive).
For the compound `CO[C@@H]1CN(C)C(=O)c2ccc(NC(C)=O)cc2OC[C@@H](C)N(C(=O)Cc2cccnc2)C[C@H]1C`, the activity change, negative = cytotoxicity is -26.2% (inactive).
Regarding `Cc1noc(C)c1NC(=O)N(C)C[C@H]1OCCCC[C@H](C)Oc2ccc(NC(=O)NC(C)C)cc2C(=O)N([C@@H](C)CO)C[C@@H]1C`, the activity change, negative = cytotoxicity is 68% (inactive).
On to `Cc1ccc(S(=O)(=O)N2C[C@@H](O)COC[C@H]3O[C@H](CC(=O)NCc4ccc5c(c4)OCO5)CC[C@@H]32)cc1`, for which the activity change, negative = cytotoxicity is -12.4% (inactive).

Staying with this test, now noted: HEK293T viability, ATP luminescence (CellTiter-Glo), 48 h; at 26 µM (top of the series).
For `CC1CCCCN1C(=O)CSc1nc(C2CC2)nc2c1cnn2-c1ccccc1` (centres undefined), the activity change, negative = cytotoxicity was 39.5% (inactive).
On to `CCCC(=O)Nc1ccc2c(c1)OC[C@@H](C)N(Cc1cncnc1)C[C@@H](C)[C@@H](OC)CN(C)C2=O`, for which the activity change, negative = cytotoxicity is 49.4% (inactive).
Still for that read-out and setting: the same measure for `COc1cccc(S(=O)(=O)Nc2ccc3c(c2)[C@H]2C[C@H](CC(=O)N(C)C)O[C@@H](CO)[C@H]2O3)c1`: -5.49% (inactive).
Turning to `C[C@H]1CN([C@@H](C)CO)C(=O)c2cccc(N(C)C)c2O[C@@H]1CN(C)C(=O)Nc1cccc2ccccc12`, the activity change, negative = cytotoxicity was -6.36% (inactive).
Take `COc1ccc(C#Cc2cnc3c(c2)C(=O)N([C@@H](C)CO)C[C@H](C)[C@@H](CN(C)C(=O)CC2CC2)O3)cc1`: the activity change, negative = cytotoxicity was -34.7% (inactive).
Take `COc1ccc(CNC(=S)NCc2ccc(OC(C)C)cc2)cc1`: the activity change, negative = cytotoxicity was 19.2% (inactive).
For `CC(C)NC(=O)Nc1ccc2c(c1)CC(=O)N([C@@H](C)CO)C[C@@H](C)[C@@H](CN(C)S(=O)(=O)c1ccc(Cl)cc1)O2`, the activity change, negative = cytotoxicity is 6.41% (inactive).
In the case of `Cc1cccc(C)c1NC(=O)CN(C)C(=O)C1CCCCC1`, the activity change, negative = cytotoxicity is -11.8% (inactive).
With `C[C@H](CO)N1C[C@H](C)[C@@H](CN(C)CC2CCOCC2)Oc2ncc(C#Cc3ccc(F)cc3)cc2C1=O`, the activity change, negative = cytotoxicity is -11.1% (inactive).
On the same count and under the same terms, the value for `C[C@@H](NC(=O)C[C@@H]1CC[C@H]2[C@@H](COC[C@@H](O)CN2Cc2cc(F)ccc2F)O1)c1ccccc1` was -19.7% (inactive).
As to `CO[C@H]1CN(C)C(=O)c2ccc(NC(C)=O)cc2OC[C@H](C)N(C(=O)c2ccncc2)C[C@@H]1C`, the activity change, negative = cytotoxicity was -20% (inactive).
Turning to `C[C@H]1CCCCO[C@@H](CN(C)C(=O)c2ccccc2)[C@@H](C)CN([C@@H](C)CO)C(=O)c2cc(NC(=O)c3ccncc3)ccc2O1`, the activity change, negative = cytotoxicity was -3.03% (inactive).
For the compound `COCCNC(=O)C[C@H]1C[C@@H]2c3cc(NC(=O)C4CCC4)ccc3O[C@@H]2[C@H](CO)O1`, the activity change, negative = cytotoxicity was 26.2% (inactive).
On to `CO[C@H]1CN(C)C(=O)c2cc(NS(=O)(=O)CC(F)(F)F)ccc2OC[C@@H](C)N(Cc2cccnc2)C[C@@H]1C`, for which the activity change, negative = cytotoxicity is -36.3% (inactive).
Same read-out and setting: the same measure for `CC(C)NC(=O)N(C)C[C@@H]1OCCCC[C@H](C)Oc2ccc(NC(=O)c3ccccc3)cc2C(=O)N([C@H](C)CO)C[C@H]1C`: -12.5% (inactive); for `O=C(Nc1ccc(F)cc1)N1C[C@@H]2[C@H](c3ccccc31)[C@H](CO)N2Cc1cocn1`: -11.6% (inactive); for `C[C@H]1CN([C@@H](C)CO)C(=O)Cc2cc(NC(=O)Nc3ccccc3)ccc2O[C@H]1CN(C)C(=O)Nc1ccc2c(c1)OCO2`: -2.2% (inactive).
On the same count and under the same terms, the value for `COc1cccc(CNC(=O)COc2ccc(C(=O)c3ccccc3)cc2)c1` was 10% (inactive).
Consider `COc1ccc(C2CC(c3cccs3)=NN2C(=O)c2ccc(Br)o2)cc1` (centres undefined), for which the activity change, negative = cytotoxicity is 16.8% (inactive).
Turning to `O=C(N[C@H]1CC[C@H](CCn2cc(-c3ccccn3)nn2)O[C@H]1CO)c1ccc(F)cc1`, the activity change, negative = cytotoxicity was -9.35% (inactive).
For the compound `Cc1ccc(OCCn2c(=S)[nH]c3ccccc32)c(C(C)C)c1`, the activity change, negative = cytotoxicity is -49.7% (inactive).
As for `CCC(=O)N1CCC1(C)C(=O)Nc1ccc(C)c(C)c1` (centres undefined), the activity change, negative = cytotoxicity was -11.7% (inactive).
Turning to `O=C(C[C@H]1CC[C@H]2[C@@H](COC[C@H](O)CN2Cc2cc(F)cc(F)c2)O1)Nc1nccs1`, the activity change, negative = cytotoxicity is 0.29% (inactive).
In the case of `Cc1cccc(NC(=O)CN(C)C(=O)C2CCCC2)c1C`, the activity change, negative = cytotoxicity was -33.5% (inactive).
On to `C[C@@H]1CN([C@@H](C)CO)C(=O)c2cc(NC(=O)CCN3CCOCC3)ccc2O[C@@H]1CN(C)Cc1ccc(C(=O)O)cc1`, for which the activity change, negative = cytotoxicity was -11.9% (inactive).
Turning to `CO[C@H]1CN(C)C(=O)c2cc(NC(=O)c3ccc4c(c3)OCO4)ccc2OC[C@@H](C)N(CC2CC2)C[C@H]1C`, the activity change, negative = cytotoxicity is -5.62% (inactive).
Same read-out and setting: the value for `CC(C)CC#Cc1cnc2c(c1)C(=O)N([C@H](C)CO)C[C@@H](C)[C@@H](CN(C)C(=O)c1ccc3c(c1)OCO3)O2` was 33.9% (inactive).
As for `CN1C(=O)c2cc(NS(=O)(=O)c3cccc(F)c3)ccc2OC[C@H]2O[C@H](CC(=O)O)CC[C@H]21`, the activity change, negative = cytotoxicity was 29.9% (inactive).
For the compound `COCC(=O)N(C)C[C@H]1Oc2ncc(-c3ccccc3F)cc2C(=O)N([C@@H](C)CO)C[C@H]1C`, the activity change, negative = cytotoxicity is -32.3% (inactive).
The same measure, in the same setting: the same measure for `CC(C)NC(=O)Nc1ccc2c(c1)CC(=O)N([C@@H](C)CO)C[C@@H](C)[C@H](CN(C)C(=O)Nc1ccc3c(c1)OCO3)O2`: 50.2% (inactive); for `COC(=O)C1=C(C)N(Cc2ccccc2)C(=S)NC1c1ccc(Cl)cc1` (centres undefined): -9.7% (inactive); for `CC(C)NC(=O)Nc1ccc2c(c1)C(=O)N([C@H](C)CO)C[C@@H](C)[C@H](CN(C)C(=O)Nc1ccccc1)OCCCC[C@@H](C)O2`: 37.7% (inactive).
Turning to `CCNC(=O)COc1cccc(C(=O)NCc2ccccc2)c1`, the activity change, negative = cytotoxicity is -54% (inactive).
`C[C@@H]1CN([C@@H](C)CO)S(=O)(=O)c2ccc(C#Cc3ccc(F)cc3)cc2O[C@H]1CN(C)C(=O)NC1CCCC1`: the activity change, negative = cytotoxicity is 39.2% (inactive).
`CC(NC(=O)COc1ccc([N+](=O)[O-])cc1)c1ccccc1` (centres undefined): the activity change, negative = cytotoxicity was 18.2% (inactive).
Take `C/C=C/c1cnc2c(c1)C(=O)N([C@H](C)CO)C[C@@H](C)[C@@H](CN(C)C(=O)C1CCCCC1)O2`: the activity change, negative = cytotoxicity is 38.1% (inactive).
As for `C[C@@H]1CN([C@@H](C)CO)C(=O)CCCn2nncc2CO[C@H]1CN(C)Cc1cccc(C(F)(F)F)c1`, the activity change, negative = cytotoxicity is -26.6% (inactive).
In the case of `C[C@H]1CN([C@@H](C)CO)C(=O)Cc2cc(NC(=O)Nc3cccc4ccccc34)ccc2O[C@H]1CN(C)S(=O)(=O)c1cccs1`, the activity change, negative = cytotoxicity is -25.9% (inactive).
In the case of `O=C(C[C@H]1CC[C@@H]2[C@H](COC[C@H](O)CN2CC2CCOCC2)O1)NCc1ccc(Cl)cc1`, the activity change, negative = cytotoxicity is 19% (inactive).
Same read-out and setting: the same measure for `CC(=O)N1[C@@H](CO)[C@H](c2ccc(-c3ccccc3)cc2)[C@@H]1CNC(=O)C1CC1`: 13.9% (inactive).
In the case of `COc1ccc(NC(=O)Nc2ccc3c(c2)C(=O)N([C@H](C)CO)C[C@@H](C)[C@H](CN(C)S(=O)(=O)c2ccc(Cl)cc2)OCCCC[C@@H](C)O3)cc1`, the activity change, negative = cytotoxicity was -9.56% (inactive).
Still for that read-out and setting: the same measure for `Cc1cc(C)c2nc(N3CCN(C(=O)c4cccs4)CC3)sc2c1`: -19.8% (inactive).
Turning to `CNC(=O)C[C@@H]1CC[C@@H]2[C@H](COC[C@@H](O)CN2C(=O)Nc2ccc3c(c2)OCO3)O1`, the activity change, negative = cytotoxicity is 25% (inactive).
For `O=C(NC1CCCC1)N1CCCCN2[C@H](CO)[C@@H](c3ccc(-c4cncnc4)cc3)[C@H]2C1`, the activity change, negative = cytotoxicity is 41.2% (inactive).
For the compound `Cc1noc(C)c1S(=O)(=O)N(C)C[C@@H]1OCCCC[C@@H](C)Oc2ccc(NC(=O)CCCCCC(=O)Nc3ccccc3N)cc2C(=O)N([C@H](C)CO)C[C@@H]1C`, the activity change, negative = cytotoxicity was 1.87% (inactive).
On to `Cc1ccc(S(=O)(=O)N(CC(=O)NCCSC2CCCCC2)c2ccccc2F)cc1`, for which the activity change, negative = cytotoxicity is 5.79% (inactive).
Still for that read-out and setting: the same measure for `CO[C@@H]1CN(C)C(=O)c2ccc(NC(=O)Nc3ccccc3)cc2OC[C@H](C)N(C(C)=O)C[C@H]1C`: -7.15% (inactive).
With `COCCNC(=O)C[C@@H]1C[C@H]2c3cc(NC(=O)C4CCC4)ccc3O[C@H]2[C@@H](CO)O1`, the activity change, negative = cytotoxicity was 3.65% (inactive).
In the case of `O=C(NC[C@H]1[C@@H](c2ccccc2)[C@@H](CO)N1C(=O)C1CCC1)NC1CCCC1`, the activity change, negative = cytotoxicity was -38.9% (inactive).

The same test, now with this note: HEK293T viability, ATP luminescence (CellTiter-Glo), 48 h; at 28.5 µM (top of the series).
`Cc1ccc(N(CC(N)=O)S(=O)(=O)c2ccc(F)cc2)cc1`: the activity change, negative = cytotoxicity was -28% (inactive).

The test is the same for the next values; noted with them: HEK293T viability, ATP luminescence (CellTiter-Glo), 48 h; at 30 µM (top of the series).
For `COC(=O)C1=C(C)N(CC(C)C)C(=S)NC1c1cccc(F)c1` (centres undefined), the activity change, negative = cytotoxicity was -13.7% (inactive).

Still in this test, the particulars now being: HEK293T viability, ATP luminescence (CellTiter-Glo), 48 h; at 38 µM (top of the series).
On to `CC(C)C(=O)N1CCC1(C)C(=O)Nc1ccccc1C(C)(C)C` (centres undefined), for which the activity change, negative = cytotoxicity was -4.57% (inactive).

(Values after PubChem BioAssay AID687005 (Broad Institute, 2013).)
